Source: patent publication US11439622B2 (OXFORD UNIVERSITY INNOVATION LIMITED, priority 2015, dated 2022)

Key:
Type in all cases: biochemical
[1] = molecular target: VIM-2 (Veronese metallo-β-lactamase-2) (Escherichia coli, UniProt Q5U7L7); assay: Enzyme inhibition assay, VIM-2; details: read-out: pIC50 VIM-2 (converted)
Procedure: (§1) The biological activity of the compounds of the present invention was tested using standard assay protocols.^7 The following representative enzymes NDM-1 (New Delhi metallo-β-lactamase-1), IMP-1 (Imipenemase-1) and VIM-2 (Veronese metallo-β-lactamase-2) were selected from different clinically relevant B1 metallo-β-lactamases.

[2] = molecular target: NDM-1 (New Delhi metallo-β-lactamase-1) (Klebsiella pneumoniae, UniProt C7C422); assay: Enzyme inhibition assay, NDM-1; details: read-out: pIC50 NDM-1 (converted)
Sequence of NDM-1 (New Delhi metallo-β-lactamase-1) (C7C422 29-270, looked up, species assumed): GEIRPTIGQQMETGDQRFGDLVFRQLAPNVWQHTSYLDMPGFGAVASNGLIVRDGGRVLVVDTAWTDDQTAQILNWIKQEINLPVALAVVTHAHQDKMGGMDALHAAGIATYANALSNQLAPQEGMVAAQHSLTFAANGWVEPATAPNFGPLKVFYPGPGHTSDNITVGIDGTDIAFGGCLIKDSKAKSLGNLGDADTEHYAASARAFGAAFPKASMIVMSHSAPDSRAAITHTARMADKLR
Procedure: as §1

[3] = molecular target: IMP-1 (Imipenemase-1) (Serratia marcescens, UniProt P52699); assay: Enzyme inhibition assay, IMP-1; details: read-out: pIC50 IMP-1 (converted)
Sequence of IMP-1 (Imipenemase-1) (P52699 19-246, looked up, species assumed): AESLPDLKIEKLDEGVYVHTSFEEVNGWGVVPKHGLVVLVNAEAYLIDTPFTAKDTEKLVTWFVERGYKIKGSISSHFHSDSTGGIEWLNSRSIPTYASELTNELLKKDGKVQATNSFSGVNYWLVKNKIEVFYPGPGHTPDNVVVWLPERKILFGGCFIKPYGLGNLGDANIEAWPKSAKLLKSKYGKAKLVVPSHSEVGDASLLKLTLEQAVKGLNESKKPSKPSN
Procedure: as §1

| Structure (SMILES) | IC50 [1] [nM] | IC50 [2] [nM] | IC50 [3] [nM] |
| --- | --- | --- | --- |
| COc1cc(C)c2[nH]c(C(=O)O)c(-c3ccc(F)cc3)c2c1 [Example 60, 3-(4-fluorophenyl)-5-methoxy-7-methyl-1H-indole-2-carboxylic acid] | 631 | 126 | > 100000 |
| COCCc1cccc2c(-c3ccc(F)cc3)c(C(=O)O)[nH]c12 [Example 61, 3-(4-fluorophenyl)-7-(2-methoxyethyl)-1H-indole-2-carboxylic acid] | 316 | 31.6 | 1260 |
| O=C(O)c1[nH]c2c(CCOc3ccccc3)cccc2c1-c1ccc(F)cc1 [Example 62, 3-(4-fluorophenyl)-7-(2-phenoxyethyl)-1H-indole-2-carboxylic acid] | 158 | 5.01 | 316 |
| Cc1cccc2c(-c3ccccn3)c(C(=O)O)[nH]c12 [Example 63, 7-methyl-3-(pyridin-2-yl)-1H-indole-2-carboxylic acid] | 1000 | 316 | > 100000 |
| Cc1c(Oc2ccccc2)ccc2c(-c3ccc(F)cc3)c(C(=O)O)[nH]c12 [Example 64, 3-(4-fluorophenyl)-7-methyl-6-phenoxy-1H-indole-2-carboxylic acid] | 501 | 15.8 | 1580 |
| CC(C)c1cccc2c(-c3ccc(S(N)(=O)=O)cc3)c(C(=O)O)[nH]c12 [Example 65, 7-isopropyl-3-(4-sulfamoylphenyl)-1H-indole-2-carboxylic acid] | 12.6 | 1.58 | 31.6 |
| CC(C)c1cccc2c(-c3ccccc3)c(C(=O)O)[nH]c12 [Example 66, 7-isopropyl-3-phenyl-1H-indole-2-carboxylic acid] | 31.6 | 5.01 | 31.6 |
| CC(C)c1cccc2c(-c3ccc(S(C)(=O)=O)cc3)c(C(=O)O)[nH]c12 [Example 67, 7-isopropyl-3-(4-(methylsulfonyl)phenyl)-1H-indole-2-carboxylic acid] | 20 | 2.51 | 39.8 |
| CC(C)c1cccc2c(-c3ccncc3)c(C(=O)O)[nH]c12 [Example 68, 7-isopropyl-3-(pyridin-4-yl)-1H-indole-2-carboxylic acid] | 31.6 | 6.31 | 39.8 |
| CC(C)c1cccc2c(-c3ccc(C(N)=O)cc3)c(C(=O)O)[nH]c12 [Example 69, 3-(4-carbamoylphenyl)-7-isopropyl-1H-indole-2-carboxylic acid] | 7.94 | 2.51 | 12.6 |
| CC(C)c1cccc2c(-c3ccc(N4CCOCC4)cc3)c(C(=O)O)[nH]c12 [Example 70, 7-isopropyl-3-(4-morpholinophenyl)-1H-indole-2-carboxylic acid] | 79.4 | 2.51 | 10 |
| CC(C)c1cccc2c(-c3ccc(Cl)cc3)c(C(=O)O)[nH]c12 [Example 71, 3-(4-chlorophenyl)-7-isopropyl-1H-indole-2-carboxylic acid] | 20 | 3.98 | 39.8 |
| CC(C)c1cccc2c(-c3ccccc3Cl)c(C(=O)O)[nH]c12 [Example 72, 3-(2-chlorophenyl)-7-isopropyl-1H-indole-2-carboxylic acid] | 12.6 | 50.1 | 2510 |
| CC(C)c1cccc2c(-c3ccc(S(=O)(=O)N(C)C)cc3)c(C(=O)O)[nH]c12 [Example 73] | 31.6 | 0.355 | 31.6 |
| CC(C)c1cccc2c(-c3ccc(C(=O)N(C)C)cc3)c(C(=O)O)[nH]c12 [Example 74, 3-(4-(dimethylcarbamoyl)phenyl)-7-isopropyl-1H-indole-2-carboxylic acid] | 79.4 | 0.562 | 20 |
| CC(C)c1cccc2c(-c3ccc4[nH]ncc4c3)c(C(=O)O)[nH]c12 [Example 75, 3-(1H-indazol-5-yl)-7-isopropyl-1H-indole-2-carboxylic acid] | 10 | 2 | 25.1 |
| COc1cccc(-c2c(C(=O)O)[nH]c3c(C(C)C)cccc23)c1OC [Example 77, 3-(2,3-dimethoxyphenyl)-7-isopropyl-1H-indole-2-carboxylic acid] | 6.31 | 200 | 12600 |
| CC(C)c1cccc2c(-c3cc(F)cc(F)c3)c(C(=O)O)[nH]c12 [Example 78, 3-(3,5-difluorophenyl)-7-isopropyl-1H-indole-2-carboxylic acid] | 3.98 | 10 | 126 |
| CC(C)c1cccc2c(-c3ccc(Cn4cccn4)cc3)c(C(=O)O)[nH]c12 [Example 79, 3-(4-((1H-pyrazol-1-yl)methyl)phenyl)-7-isopropyl-1H-indole-2-carboxylic acid] | 3.98 | 0.501 | 15.8 |

| Structure (SMILES) | IC50 [1] [nM] | IC50 [2] [nM] | IC50 [3] [nM] |
| --- | --- | --- | --- |
| CC(C)c1cccc2c(-c3ccc(Cn4cncn4)cc3)c(C(=O)O)[nH]c12 [Example 80, 3-(4-((1H-1,2,4-triazol-1-yl)methyl)phenyl)-7-isopropyl-1H-indole-2-carboxylic acid] | 10 | 0.631 | 20 |
| CN(C)S(=O)(=O)c1ccc(-c2c(C(=O)O)[nH]c3c(CCOc4ccccc4)cccc23)cc1 [Example 81, 3-(4-(N,N-dimethylsulfamoyl)phenyl)-7-(2-phenoxyethyl)-1H-indole-2-carboxylic acid] | 63.1 | 1.58 | 100 |
| Cc1c(Oc2ccccc2)ccc2c(-c3ccc(S(=O)(=O)N(C)C)cc3)c(C(=O)O)[nH]c12 [Example 82, 3-(4-(N,N-dimethylsulfamoyl)phenyl)-7-methyl-6-phenoxy-1H-indole-2-carboxylic acid] | 158 | 3.98 | 501 |
| CN(C)C(=O)c1ccc(-c2c(C(=O)O)[nH]c3c(CCOc4ccccc4)cccc23)cc1 [Example 83, 3-(4-(dimethylcarbamoyl)phenyl)-7-(2-phenoxyethyl)-1H-indole-2-carboxylic acid] | 100 | 3.98 | 63.1 |
| O=C(O)c1[nH]c2c(CCOc3ccccc3)cccc2c1-c1ccc(Cl)cc1 [Example 84, 3-(4-chlorophenyl)-7-(2-phenoxyethyl)-1H-indole-2-carboxylic acid] | 20 | 37.2 | 631 |
| Cc1c(Oc2ccccc2)ccc2c(-c3ccc(Cl)cc3)c(C(=O)O)[nH]c12 [Example 85, 3-(4-chlorophenyl)-7-methyl-6-phenoxy-1H-indole-2-carboxylic acid] | 158 | 100 | 1000 |
| Cc1c(Oc2ccccc2)ccc2c(-c3ccc(C(=O)N(C)C)cc3)c(C(=O)O)[nH]c12 [Example 86, 3-(4-(dimethylcarbamoyl)phenyl)-7-methyl-6-phenoxy-1H-indole-2-carboxylic acid] | 575 | 7.41 | 646 |
| CNS(=O)(=O)c1ccc(-c2c(C(=O)O)[nH]c3c(C(C)C)cccc23)cc1 [Example 88, 7-isopropyl-3-(4-(N-methylsulfamoyl)phenyl)-1H-indole-2-carboxylic acid] | 10.2 | 4.27 | 53.7 |
| CC(C)c1cccc2c(-c3ccc(C(=O)O)cc3)c(C(=O)O)[nH]c12 [Example 91, 3-(4-carboxyphenyl)-7-isopropyl-1H-indole-2-carboxylic acid] | 7.24 | 3.39 | 44.7 |
| CC(C)c1cccc2c(-c3ccc(CN4CCOCC4)cc3)c(C(=O)O)[nH]c12 [Example 94, 7-isopropyl-3-(4-(morpholinomethyl)phenyl)-1H-indole-2-carboxylic acid] | 105 | 5.89 | 105 |
| CC(C)c1cccc2c(-c3ccc(S(=O)(=O)N(C)C)cc3)c(-c3nnn[nH]3)[nH]c12 [Example 102, 4-[7-isopropyl-2-(1H-tetrazol-5-yl)-1H-indol-3-yl]-N,N-dimethyl-benzenesulfonamide] | 407 | 10 | 13200 |
| Cc1cccc2c(C3CCCCC3)c(C(=O)O)[nH]c12 [Example 103] | 3160 | 79.4 | 79400 |
| Cc1cccc2c(C3CCCC3)c(C(=O)O)[nH]c12 [Example 104, 3-cyclopentyl-7-methyl-1H-indole-2-carboxylic acid] | 12600 | 251 | 50100 |
| Cc1cccc2c(C3CCN(C(=O)OC(C)(C)C)CC3)c(C(=O)O)[nH]c12 [Example 105, 3-(1-tert-butoxycarbonyl-4-piperidyl)-7-methyl-1H-indole-2-carboxylic acid] | 2510 | 158 | 31600 |
| O=C(O)c1[nH]c2c(C3CC3)cccc2c1-c1ccc(F)cc1 [Example 106, 7-cyclopropyl-3-(4-fluorophenyl)-1H-indole-2-carboxylic acid] | 50.1 | 12.6 | 501 |
| Cc1cccc2c(Cc3ccc(Cl)cc3)c(C(=O)O)[nH]c12 [Example 107, 3-[(4-chlorophenyl)methyl]-7-methyl-1H-indole-2-carboxylic acid] | 1580 | 631 | 3980 |
| O=C(O)c1[nH]c2c(CCO)cccc2c1-c1ccc(F)cc1 [Example 108, 3-(4-fluorophenyl)-7-(2-hydroxyethyl)-1H-indole-2-carboxylic acid] | 794 | 50.1 | 3160 |
| COc1cccc(-c2c(C(=O)O)[nH]c3c(C)cccc23)c1OC [Example 116, 3-(2,3-dimethoxyphenyl)-7-methyl-1H-indole-2-carboxylic acid] | 39.8 | 1260 | > 100000 |
